Reference: ChEMBL document CHEMBL5143665, “Discovery and preclinical evaluations of WX-0593, a novel ALK inhibitor targeting crizotinib-resistant mutations” (Bioorg Med Chem Lett, 2022)
Calls of active or inactive are those of the source. The calls are words filed in the database; no cut-off is given here.

Legend:
[1] = target: ALK tyrosine kinase receptor (Homo sapiens, UniProt Q9UM73, C1156Y)
[2] = target: T1, ALK tyrosine kinase receptor (Homo sapiens, UniProt Q9UM73)
Target sequence in this assay (Q9UM73 whole entry, the tested form may be a part): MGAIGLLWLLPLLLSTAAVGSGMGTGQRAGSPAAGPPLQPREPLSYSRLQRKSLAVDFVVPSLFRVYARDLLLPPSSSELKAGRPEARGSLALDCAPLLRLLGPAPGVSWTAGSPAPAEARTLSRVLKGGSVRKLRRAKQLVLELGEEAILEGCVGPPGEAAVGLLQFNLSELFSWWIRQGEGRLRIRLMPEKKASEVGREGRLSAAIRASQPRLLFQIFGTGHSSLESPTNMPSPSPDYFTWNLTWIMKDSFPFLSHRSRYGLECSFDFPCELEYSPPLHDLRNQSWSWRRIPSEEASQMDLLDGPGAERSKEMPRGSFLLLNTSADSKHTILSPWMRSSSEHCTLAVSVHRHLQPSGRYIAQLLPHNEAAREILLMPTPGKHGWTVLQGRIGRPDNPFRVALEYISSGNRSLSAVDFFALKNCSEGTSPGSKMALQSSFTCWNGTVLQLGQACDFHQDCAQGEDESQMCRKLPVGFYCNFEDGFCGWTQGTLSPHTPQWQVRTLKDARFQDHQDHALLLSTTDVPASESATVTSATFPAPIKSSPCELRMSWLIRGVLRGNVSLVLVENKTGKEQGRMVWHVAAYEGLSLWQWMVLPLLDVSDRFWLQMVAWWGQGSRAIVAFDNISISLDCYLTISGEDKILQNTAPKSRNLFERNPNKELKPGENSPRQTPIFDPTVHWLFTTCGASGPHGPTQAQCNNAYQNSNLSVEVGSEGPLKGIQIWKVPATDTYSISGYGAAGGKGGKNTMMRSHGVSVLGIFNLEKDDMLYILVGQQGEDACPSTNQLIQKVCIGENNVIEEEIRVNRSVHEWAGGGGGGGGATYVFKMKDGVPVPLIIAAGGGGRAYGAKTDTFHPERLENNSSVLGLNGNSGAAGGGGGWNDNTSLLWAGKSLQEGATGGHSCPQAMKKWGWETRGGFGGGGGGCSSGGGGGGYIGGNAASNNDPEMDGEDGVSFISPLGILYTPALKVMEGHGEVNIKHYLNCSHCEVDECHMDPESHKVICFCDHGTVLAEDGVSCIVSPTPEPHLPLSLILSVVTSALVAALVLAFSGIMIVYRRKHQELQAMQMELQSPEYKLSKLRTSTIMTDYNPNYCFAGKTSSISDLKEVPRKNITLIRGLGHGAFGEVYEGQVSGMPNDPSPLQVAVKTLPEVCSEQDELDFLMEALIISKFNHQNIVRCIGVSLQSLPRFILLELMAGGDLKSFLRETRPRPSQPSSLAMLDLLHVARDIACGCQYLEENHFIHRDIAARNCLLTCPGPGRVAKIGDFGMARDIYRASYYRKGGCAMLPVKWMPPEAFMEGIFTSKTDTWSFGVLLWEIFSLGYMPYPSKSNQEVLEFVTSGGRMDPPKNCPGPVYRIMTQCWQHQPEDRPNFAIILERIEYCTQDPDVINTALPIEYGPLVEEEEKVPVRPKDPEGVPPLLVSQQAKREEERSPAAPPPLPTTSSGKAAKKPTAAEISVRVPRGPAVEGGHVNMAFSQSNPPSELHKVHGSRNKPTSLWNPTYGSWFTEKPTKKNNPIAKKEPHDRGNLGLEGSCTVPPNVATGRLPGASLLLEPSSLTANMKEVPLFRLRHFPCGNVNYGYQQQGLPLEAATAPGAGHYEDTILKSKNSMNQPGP

BaF3 [3] = test: Antiproliferative activity against crizotinib resistant mouse BaF3 cells expressing EML4 fused ALK F1174C mutant assessed as reduction in cell viability incubated for 72 hrs by Celltitre-Glo luminescent assay; type: functional, cell-based; details: BaF3, 72 h
BaF3 [4] = test: Antiproliferative activity against crizotinib resistant mouse BaF3 cells expressing EML4 fused ALK I1171S mutant assessed as reduction in cell viability incubated for 72 hrs by Celltitre-Glo luminescent assay; type: functional, cell-based; details: BaF3, 72 h
BaF3 [5] = test: Antiproliferative activity against crizotinib resistant mouse BaF3 cells expressing EML4 fused ALK T1151Tins mutant assessed as reduction in cell viability incubated for 72 hrs by Celltitre-Glo luminescent assay; type: functional, cell-based; details: BaF3, 72 h, read-out: IC50
BaF3 [6] = test: Antiproliferative activity against crizotinib resistant mouse BaF3 cells expressing EML4 fused ALK F1174V mutant assessed as reduction in cell viability incubated for 72 hrs by Celltitre-Glo luminescent assay; type: functional, cell-based; details: BaF3, 72 h
BaF3 [7] = test: Antiproliferative activity against crizotinib resistant mouse BaF3 cells expressing EML4 fused ALK V1180L mutant assessed as reduction in cell viability incubated for 72 hrs by Celltitre-Glo luminescent assay; type: functional, cell-based; details: BaF3, 72 h
BaF3 [8] = test: Antiproliferative activity against crizotinib resistant mouse BaF3 cells expressing EML4 fused ALK L1152R mutant assessed as reduction in cell viability incubated for 72 hrs by Celltitre-Glo luminescent assay; type: functional, cell-based; details: BaF3, 72 h
BaF3 [9] = test: Antiproliferative activity against crizotinib resistant mouse BaF3 cells expressing EML4 fused ALK L1152P mutant assessed as reduction in cell viability incubated for 72 hrs by Celltitre-Glo luminescent assay; type: functional, cell-based; details: BaF3, 72 h
BaF3 [10] = test: Antiproliferative activity against crizotinib resistant mouse BaF3 cells expressing EML4 fused ALK I1171T mutant assessed as reduction in cell viability incubated for 72 hrs by Celltitre-Glo luminescent assay; type: functional, cell-based; details: BaF3, 72 h
BaF3 [11] = test: Antiproliferative activity against crizotinib resistant mouse BaF3 cells expressing EML4 fused ALK I1171N mutant assessed as reduction in cell viability incubated for 72 hrs by Celltitre-Glo luminescent assay; type: functional, cell-based; details: BaF3, 72 h, read-out: IC50
BaF3 [12] = test: Antiproliferative activity against mouse BaF3 cells harbouring SLC34A2-ROS1-L2026M mutant assessed as reduction in cell viability incubated for 72 hrs by Celltitre-Glo luminescent assay; type: functional, cell-based; details: BaF3, 72 h
BaF3 [13] = test: Antiproliferative activity against mouse BaF3 cells harbouring CD74-ROS1-S1986Y mutant assessed as reduction in cell viability incubated for 72 hrs by Celltitre-Glo luminescent assay; type: functional, cell-based; details: BaF3, 72 h
BaF3 [14] = test: Antiproliferative activity against mouse BaF3 cells harbouring CD74-ROS1-S1986F mutant assessed as reduction in cell viability incubated for 72 hrs by Celltitre-Glo luminescent assay; type: functional, cell-based; details: BaF3, 72 h
BaF3 [15] = test: Antiproliferative activity against mouse BaF3 cells harbouring CD74-ROS1-D2033N mutant assessed as reduction in cell viability incubated for 72 hrs by Celltitre-Glo luminescent assay; type: functional, cell-based; details: BaF3, 72 h
[16] = Clearance in Balb/c nude mouse at 1 mg/kg, iv; type: ADME, organism-based; details: in vivo
[17] = Volume of distribution at steady state in Balb/c nude mouse at 1 mg/kg, iv; type: ADME, organism-based; details: in vivo, read-out: Vdss
[18] = Half-life in Balb/c nude mouse at 1 mg/kg, iv; type: ADME, organism-based; details: in vivo
[19] = Cmax in Balb/c nude mouse at 5 mg/kg, po; type: ADME, organism-based; parameters: dose 5 mg/kg, route po; details: in vivo
[20] = AUC (0 to last) in Balb/c nude mouse at 5 mg/kg, po; type: ADME, organism-based; parameters: time 0 - last, dose 5 mg/kg, route po; details: in vivo
[21] = Oral bioavailability in Balb/c nude mouse at 5 mg/kg; type: ADME, organism-based; details: in vivo
[22] = Cmax in Sprague-Dawley rat at 8 mg/kg, po; type: ADME, organism-based; parameters: dose 8 mg/kg, route po; details: in vivo
[23] = AUC (0 to last) in Sprague-Dawley rat at 8 mg/kg, po; type: ADME, organism-based; parameters: time 0 - last, dose 8 mg/kg, route po; details: in vivo
[24] = Cmax in Cynomolgus monkey at 2 mg/kg, po; type: ADME, organism-based, Macaca fascicularis; parameters: dose 2 mg/kg, route po; details: in vivo
[25] = AUC (0 to last) in Cynomolgus monkey at 2 mg/kg, po; type: ADME, organism-based, Macaca fascicularis; parameters: time 0 - last, dose 2 mg/kg, route po; details: in vivo
[26] = Clearance in Beagle dog at 1 mg/kg, iv; type: ADME, organism-based, Canis lupus familiaris; details: in vivo
[27] = Volume of distribution at steady state in Beagle dog at 1 mg/kg, iv; type: ADME, organism-based, Canis lupus familiaris; details: in vivo, read-out: Vdss
[28] = Half-life in Beagle dog at 1 mg/kg, iv; type: ADME, organism-based, Canis lupus familiaris; details: in vivo
[29] = target: T1, ALK tyrosine kinase receptor; test: Inhibition of ALK phosphorylation in human NCI-H3122 cells by Western blotting analysis; type: cell-based; details: DDE = dose-dependent effect
Target sequence in this assay (Q9UM73 19-1620 limits assumed): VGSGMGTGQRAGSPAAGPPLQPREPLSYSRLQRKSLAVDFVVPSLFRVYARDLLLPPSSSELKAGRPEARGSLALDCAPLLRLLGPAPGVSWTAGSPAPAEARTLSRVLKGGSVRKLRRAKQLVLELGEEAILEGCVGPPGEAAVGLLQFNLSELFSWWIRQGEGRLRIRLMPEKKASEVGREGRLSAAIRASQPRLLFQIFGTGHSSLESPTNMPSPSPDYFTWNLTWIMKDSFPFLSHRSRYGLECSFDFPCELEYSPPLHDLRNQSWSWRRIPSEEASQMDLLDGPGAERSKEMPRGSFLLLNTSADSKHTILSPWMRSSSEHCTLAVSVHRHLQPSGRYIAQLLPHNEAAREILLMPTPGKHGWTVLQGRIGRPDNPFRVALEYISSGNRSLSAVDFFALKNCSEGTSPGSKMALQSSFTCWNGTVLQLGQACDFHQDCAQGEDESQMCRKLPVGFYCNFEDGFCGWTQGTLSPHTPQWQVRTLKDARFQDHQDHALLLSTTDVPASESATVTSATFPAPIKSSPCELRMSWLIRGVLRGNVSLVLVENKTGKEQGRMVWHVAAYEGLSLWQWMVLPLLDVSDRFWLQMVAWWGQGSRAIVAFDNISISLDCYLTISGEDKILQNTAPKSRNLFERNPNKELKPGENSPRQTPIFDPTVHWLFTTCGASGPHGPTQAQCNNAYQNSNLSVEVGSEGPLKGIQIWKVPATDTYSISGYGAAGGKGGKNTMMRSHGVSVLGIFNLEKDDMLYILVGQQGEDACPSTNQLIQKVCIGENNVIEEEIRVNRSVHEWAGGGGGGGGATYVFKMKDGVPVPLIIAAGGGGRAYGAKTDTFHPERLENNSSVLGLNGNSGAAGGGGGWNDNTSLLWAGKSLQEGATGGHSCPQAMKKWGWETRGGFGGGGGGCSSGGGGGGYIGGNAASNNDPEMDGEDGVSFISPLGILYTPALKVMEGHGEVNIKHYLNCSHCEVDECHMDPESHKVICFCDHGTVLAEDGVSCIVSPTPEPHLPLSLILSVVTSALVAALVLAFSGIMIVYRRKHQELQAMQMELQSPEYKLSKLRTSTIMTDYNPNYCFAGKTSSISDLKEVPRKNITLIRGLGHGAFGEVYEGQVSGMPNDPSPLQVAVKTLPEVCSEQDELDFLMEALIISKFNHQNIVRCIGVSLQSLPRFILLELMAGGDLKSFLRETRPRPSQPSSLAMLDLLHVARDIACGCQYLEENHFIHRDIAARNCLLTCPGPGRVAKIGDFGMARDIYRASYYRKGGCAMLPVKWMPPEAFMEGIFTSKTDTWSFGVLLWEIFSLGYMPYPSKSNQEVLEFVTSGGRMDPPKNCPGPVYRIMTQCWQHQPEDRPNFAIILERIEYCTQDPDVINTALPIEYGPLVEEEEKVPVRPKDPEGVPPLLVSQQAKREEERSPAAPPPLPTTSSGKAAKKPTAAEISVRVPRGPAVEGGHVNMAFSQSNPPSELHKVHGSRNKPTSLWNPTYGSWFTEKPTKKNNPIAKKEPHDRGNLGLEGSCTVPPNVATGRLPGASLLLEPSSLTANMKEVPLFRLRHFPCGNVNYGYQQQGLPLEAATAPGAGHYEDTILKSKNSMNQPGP

NCI-H3122 [30] = test: Inhibition of ERK phosphorylation in human NCI-H3122 cells by Western blotting analysis; type: cell-based; details: DDE = dose-dependent effect
[31] = target: T2, Signal transducer and activator of transcription 5A (Homo sapiens) (UniProt P42229); test: Inhibition of STAT5 phosphorylation in human NCI-H3122 cells by Western blotting analysis; type: cell-based; details: DDE = dose-dependent effect
T2 sequence (whole entry): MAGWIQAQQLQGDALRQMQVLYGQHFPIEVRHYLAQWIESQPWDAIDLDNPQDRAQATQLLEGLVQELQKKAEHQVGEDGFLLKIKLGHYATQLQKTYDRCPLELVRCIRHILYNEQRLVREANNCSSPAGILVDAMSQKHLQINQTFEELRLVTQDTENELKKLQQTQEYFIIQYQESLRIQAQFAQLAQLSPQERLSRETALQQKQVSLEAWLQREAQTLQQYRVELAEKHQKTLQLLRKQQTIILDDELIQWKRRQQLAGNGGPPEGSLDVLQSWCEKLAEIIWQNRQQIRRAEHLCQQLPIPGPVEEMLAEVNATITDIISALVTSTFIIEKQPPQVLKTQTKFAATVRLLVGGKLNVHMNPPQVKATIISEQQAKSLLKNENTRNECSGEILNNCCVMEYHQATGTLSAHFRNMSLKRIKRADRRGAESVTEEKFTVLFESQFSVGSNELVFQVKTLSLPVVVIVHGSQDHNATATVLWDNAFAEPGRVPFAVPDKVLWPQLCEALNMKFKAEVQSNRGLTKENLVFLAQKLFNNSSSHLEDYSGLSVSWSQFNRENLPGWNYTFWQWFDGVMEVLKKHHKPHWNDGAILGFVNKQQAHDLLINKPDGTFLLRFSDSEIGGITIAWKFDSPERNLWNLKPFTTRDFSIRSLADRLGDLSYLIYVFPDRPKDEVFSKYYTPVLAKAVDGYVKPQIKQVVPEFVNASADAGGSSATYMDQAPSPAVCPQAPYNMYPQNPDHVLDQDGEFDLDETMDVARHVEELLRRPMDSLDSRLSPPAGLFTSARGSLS

NCI-H3122 [32] = test: Inhibition of AKT phosphorylation in human NCI-H3122 cells at highest concentration by Western blotting analysis; type: cell-based
LU-01-0319 = test: Antitumor activity against crizotinib-resistant patient derived LU-01-0319 cells xenografted in mouse assessed as tumor regression at 2.5 mg/kg, po; type: functional, organism-based; details: Homo sapiens
LU-01-0319R [33] = test: Antitumor activity against crizotinib-resistant patient derived LU-01-0319R cells xenografted in nude mouse at 2.5 to 10 mg/kg, po dosed once daily for 21 days; type: functional, organism-based; details: Homo sapiens, dose 2.5-10 mg/kg, time 21.0 day
LU-01-0319R [34] = test: Antitumor activity against crizotinib-resistant patient derived LU-01-0319R cells xenografted in nude mouse assessed as tumor regression at 10 mg/kg, po dosed once daily for 21 days; type: functional, organism-based; details: Homo sapiens, time 21.0 day
[35] = Toxicity in nude mouse xenografted with crizotinib-resistant patient derived LU-01-0319R cells assessed as tolerance at 2.5 to 10 mg/kg, po dosed once daily for 21 days; type: organism-based; details: in vivo, 504 h, dose 2.5-10 mg/kg, time 21 day
[36] = Toxicity in nude mouse xenografted with crizotinib-resistant patient derived LU-01-0319R cells assessed as body weight change at 2.5 to 10 mg/kg, po dosed once daily for 21 days; type: organism-based; details: in vivo, 504 h, dose 2.5-10 mg/kg, time 21 day
KARPAS-299 = test: cells; details: Homo sapiens
Description: Antiproliferative activity against human KARPAS-299 cells harbouring wild type ALK assessed as reduction in cell viability by Celltitre-Glo luminescent assay

BaF3 [37] = test: cells; details: Mus musculus
Description: Antiproliferative activity against mouse BaF3 cells harbouring ALK wild type assessed as reduction in cell viability by Celltitre-Glo luminescent assay

BaF3 [38] = test: cells; details: Mus musculus; remark: listed apart in the source
Description: Antiproliferative activity against mouse BaF3 cells harbouring ALK L1196M mutant assessed as reduction in cell viability by Celltitre-Glo luminescent assay

BaF3 [39] = test: cells; details: Mus musculus; remark: listed apart in the source
Description: Antiproliferative activity against mouse BaF3 cells harbouring ALK C1156Y mutant assessed as reduction in cell viability by Celltitre-Glo luminescent assay

cells [40] = details: Mus musculus, Ba/F3 EML4-ALK, 72 h
cells [41] = details: Mus musculus, BaF3, 72 h
cells [42] = details: Mus musculus, Ba/F3 EML4-ALK-G1202R, 72 h
cells [43] = details: Mus musculus, BaF3, 72 h; remark: listed apart in the source
cells [44] = details: Mus musculus, BaF3, 72 h; remark: listed apart in the source

Sequence of ALK tyrosine kinase receptor (Homo sapiens, UniProt Q9UM73, C1156Y) (Q9UM73 19-1620 C1156Y limits assumed): as the sequence (Q9UM73 19-1620 limits assumed) above, with C1138Y counted along it

Work on `COc1cc(N2CCC3(CCN(C)CC3)CC2)ccc1Nc1ncc(Cl)c(Nc2ccccc2P(C)(C)=O)n1` [IRUPLINALKIB] yielded an IC50 [1] of 1.8 nM, an IC50 [2] of 1.6 nM and an IC50 (BaF3 [3]) of 36 nM. It also gave an IC50 (BaF3 [4]) of 32 nM, an IC50 (BaF3 [5]) of 12 nM and an IC50 (BaF3 [6]) of 22 nM. The IC50 (BaF3 [7]) was 8 nM, the IC50 (BaF3 [8]) was 4 nM and the IC50 (BaF3 [9]) was 1 nM. The IC50 (BaF3 [10]) was 11 nM, the IC50 (BaF3 [11]) was 17 nM and the IC50 (BaF3 [12]) was 12 nM. It also gave an IC50 (BaF3 [13]) of 15 nM, an IC50 (BaF3 [14]) of 22 nM and an IC50 (BaF3 [15]) of 33 nM. It also gave a clearance [16] of 22.4 mL/min/kg, a Vd [17] of 2.33 L/kg and a half-life [18] of 1.38 h. The Cmax [19] was 741 ng/mL, the AUC(0-t) [20] was 2450 ng·h/mL and the bioavailability [21] was 66.2%. For the same molecule, the Cmax [22] was 499 ng/mL, the AUC(0-t) [23] was 4000 ng·h/mL and the Cmax [24] was 92.2 ng/mL. It also gave an AUC(0-t) [25] of 598 ng·h/mL, a clearance [26] of 8.6 mL/min/kg and a Vd [27] of 4.6 L/kg. For the same molecule, the half-life [28] was 6.47 h, the inhibition [29] was “Dde” and the inhibition (NCI-H3122 [30]) was “Dde”. For the same molecule, the inhibition [31] was “Dde”, the inhibition (NCI-H3122 [32]) was “Active” and the Activity (LU-01-0319) was “Active”. The Activity (LU-01-0319R [33]) was “Active”, the Activity (LU-01-0319R [34]) was “Active” and the Activity [35] was “Non-Toxic”. The Activity [36] was “Non-Toxic”, the IC50 (KARPAS-299) was 14.5 nM and the IC50 (BaF3 [37]) was 13 nM. For the same molecule, the IC50 (BaF3 [38]) was 24 nM, the IC50 (BaF3 [39]) was 21 nM and the IC50 (cells [40]) was 21 nM. For the same molecule, the IC50 (cells [41]) was 36 nM, the IC50 (cells [42]) was 96 nM and the IC50 (cells [43]) was 36 nM. For the same molecule, the IC50 (cells [44]) was 11 nM.
